# DBAASP
# Values joined by “and” are separate entries in the source; they are usually repeats but may differ in a detail not shown here. Equal entries are not always repeated.
# Columns and labels:
# Test in all cases: ≥ marks a high value that may be exact or a test limit, other limits are often not marked, values filed in µg/mL are converted to µM
# [1] = tested on: Acinetobacter baumannii ATCC 15308
# [2] = tested on: Escherichia coli ATCC 25922
# [3] = tested on: Klebsiella pneumoniae
# [4] = tested on: Enterobacter cloacae
# [5] = tested on: Citrobacter sp.
# [6] = tested on: Staphylococcus aureus
# [7] = tested on: Staphylococcus aureus ATCC 25923
# [8] = tested on: Pseudomonas aeruginosa ATCC 15442
# [9] = tested on: Streptococcus pneumoniae
# [10] = tested on: Pseudomonas aeruginosa ATCC BAA-427
# [11] = tested on: Candida albicans ATCC 10231
# [12] = tested on: Candida parapsilosis ATCC 22019
# [13] = tested on: Staphylococcus aureus ATCC BAA-44
# [14] = tested on: Staphylococcus aureus ATCC 33592
# [15] = tested on: Escherichia coli ATCC 9637
# [16] = tested on: Staphylococcus aureus ATCC 700699
# [17] = tested on: Staphylococcus aureus ATCC 700698
# [18] = tested on: Cryptococcus neoformans
# [19] = tested on: Staphylococcus aureus ATCC 29213
# [20] = tested on: Bacillus subtilis ATCC 6633
# [21] = tested on: Klebsiella pneumoniae ATCC 27736
# [22] = tested on: Klebsiella pneumoniae KpC+001825971
# [23] = tested on: Escherichia coli KpC+001812446
# [24] = tested on: Klebsiella pneumoniae ATCC 13883
# [25] = tested on: Pseudomonas aeruginosa
# [26] = tested on: Staphylococcus aureus 1
# [27] = tested on: Escherichia coli B
# [28] = tested on: Staphylococcus epidermidis
# [29] = tested on: Bacillus subtilis 168
# [30] = tested on: Candida albicans F7-39/IDE99
# [31] = tested on: Micrococcus luteus CCM 144
# [32] = tested on: Staphylococcus aureus ATCC 43300
# [33] = tested on: Pseudomonas aeruginosa ATCC 27853
# [34] = tested on: Escherichia coli C600
# [35] = tested on: Pseudomonas aeruginosa PAO1
# [36] = tested on: Staphylococcus aureus 209P
compound,measurement,setting,value
CC[C@H](C)[C@H](NC(=O)[C@H](CCSC)NC(=O)[C@H](C)NC(=O)[C@@H]1CCCN1C(=O)[C@@H](NC(=O)[C@@H]1CCCN1C(=O)[C@H](CCCCN)NC(=O)[C@@H](NC(=O)[C@H](CC(C)C)NC(=O)CNC(=O)CNC(=O)[C@H](CC(C)C)NC(=O)[C@@H](N)Cc1ccccc1)[C@@H](C)CC)C(C)C)C(=O)N[C@H]1CSSC[C@@H](C(=O)O)NC(=O)[C@H](CCCCN)NC(=O)[C@H](CCCCN)NC(=O)[C@H](CCCN=C(N)N)NC(=O)[C@H](C(C)C)NC(=O)[C@H](C)NC1=O [FLGGLIKPVPAMICAVRKKC],MIC,[1],≥ 117 µM
same,MIC,[2],> 117 µM
same,MIC,[3],> 117 µM
same,MIC,[4],≥ 117 µM
same,MIC,[5],≥ 117 µM
same,MIC,[6],> 117 µM
same,MIC,[7],> 117 µM
same,MIC,[8],≥ 117 µM
same,MIC,[9],≥ 117 µM
CC[C@H](C)[C@H](NC(=O)[C@H](CC(C)C)NC(=O)CNC(=O)CNC(=O)[C@H](CC(C)C)NC(=O)[C@@H](N)Cc1ccccc1)C(=O)N[C@@H](CCCCN)C(=O)N[C@@H](Cc1c[nH]c2ccccc12)C(=O)N[C@@H](CCCCN)C(=O)N[C@@H](Cc1c[nH]c2ccccc12)C(=O)N1CCC[C@H]1C(=O)N[C@@H](Cc1c[nH]c2ccccc12)C(=O)N[C@@H](Cc1c[nH]c2ccccc12)C(=O)N1CCC[C@H]1C(=O)N[C@@H](Cc1c[nH]c2ccccc12)C(=O)N[C@@H](CCCN=C(N)N)C(=O)N[C@@H](CCCN=C(N)N)C(N)=O [FLGGLIKWKWPWWPWRR],MIC,[1],13.5 µM
same,MIC,[2],3.38 µM
same,MIC,[3],> 108 µM
same,MIC,[4],≥ 108 µM
same,MIC,[5],≥ 108 µM
same,MIC,[6],3.38 µM
same,MIC,[7],3.38 µM
same,MIC,[8],13.5 µM
same,MIC,[9],3.38 µM
CC[C@H](C)[C@H](NC(=O)[C@H](CCCN=C(N)N)NC(=O)CNC(=O)[C@H](CC(C)C)NC(=O)[C@H](Cc1ccccc1)NC(=O)[C@H](CCCCN)NC(=O)[C@H](CO)NC(=O)[C@H](Cc1ccccc1)NC(=O)[C@H](Cc1c[nH]c2ccccc12)NC(=O)[C@H](CCCCN)NC(=O)[C@@H](NC(=O)[C@@H](N)Cc1ccccc1)C(C)C)C(=O)N[C@@H](CC(C)C)C(N)=O [FVKWFSKFLGRIL],MIC,[10],6.8 µM
same,MIC,[11],6 µM
same,MIC,[12],6 µM
same,MIC,[13],2 µM
same,MIC,[14],2 µM
same,MIC,[2],3.8 µM
same,MIC,[15],6.25 µM
same,MIC,[16],2 µM
same,MIC,[17],2 µM
same,MIC,[18],3 µM
same,MIC,[19],2 µM
same,MIC,[7],3.8 µM and 7.6 µM
same,MIC,[20],7.6 µM
same,MIC,[21],7.6 µM
CC[C@H](C)[C@H](NC(=O)[C@H](CCCCN)NC(=O)[C@H](CCCCN)NC(=O)[C@H](Cc1ccccc1)NC(=O)[C@H](CC(C)C)NC(=O)[C@H](CCCCN)NC(=O)[C@H](Cc1c[nH]c2ccccc12)NC(=O)[C@H](CCCCN)NC(=O)[C@H](Cc1cnc[nH]1)NC(=O)CNC(=O)CN)C(=O)NCC(=O)N[C@@H](C)C(=O)N[C@H](C(=O)N[C@@H](CC(C)C)C(=O)N[C@@H](CCCCN)C(=O)N[C@H](C(=O)N[C@@H](CC(C)C)C(=O)O)C(C)C)C(C)C [GGHKWKLFKKIGAVLKVL],MIC,[2],4 µM
same,MIC,[22],8 µM
same,MIC,[23],8 µM
same,MIC,[24],≥ 32 µM
CC[C@H](C)[C@H](NC(=O)CN)C(=O)N[C@@H](CC(C)C)C(=O)N[C@@H](CO)C(=O)N[C@@H](CO)C(=O)N[C@@H](Cc1c[nH]c2ccccc12)C(=O)N[C@@H](CC(C)C)C(=O)N[C@@H](CCCCN)C(=O)N[C@@H](CCCCN)C(=O)N[C@@H](CC(C)C)C(=O)N[C@@H](CCCCN)C(=O)N[C@@H](CCCCN)C(=O)N[C@H](C(=O)N[C@H](C(=O)N[C@@H](C)C(=O)N[C@@H](CCCCN)C(N)=O)[C@@H](C)CC)[C@@H](C)CC [GILSSWLKKLKKIIAK],MIC,[25],5.9 µM
same,MIC,[26],6.6 µM
same,MIC,[27],11 µM
same,MIC,[28],2 µM
same,MIC,[29],7 µM
same,MIC,[30],17 µM
same,MIC,[31],3 µM
same,MIC,[32],16 µM
same,MIC,[33],4 µM
same,MIC,[6],16 µM
CC[C@H](C)[C@H](NC(=O)CN)C(=O)N[C@@H](CCSC)C(=O)N[C@@H](CO)C(=O)N[C@@H](CO)C(=O)N[C@@H](CC(C)C)C(=O)N[C@@H](CCSC)C(=O)N[C@@H](CCCCN)C(=O)N[C@@H](CCCCN)C(=O)N[C@@H](CC(C)C)C(=O)N[C@@H](C)C(=O)N[C@@H](C)C(=O)N[C@@H](Cc1cnc[nH]1)C(=O)N[C@H](C(=O)N[C@@H](CCCCN)C(=O)N[C@@H](CCCCN)C(N)=O)[C@@H](C)CC [GIMSSLMKKLAAHIKK],MIC,[25],46 µM
same,MIC,[26],≥ 77 µM
same,MIC,[27],20 µM
same,MIC,[28],11 µM
same,MIC,[29],7 µM
same,MIC,[30],5 µM
same,MIC,[31],3 µM
same,MIC,[32],85 µM
same,MIC,[33],23 µM
same,MIC,[6],90 µM
CC(C)[C@@H]1NC(=O)CNC(=O)[C@H](CCCN=C(N)N)NC(=O)[C@H](C(C)C)NC(=O)[C@H](CCCN=C(N)N)NC(=O)[C@H](C)NC(=O)[C@H](CCCN=C(N)N)NC(=O)[C@H](C(C)C)NC(=O)[C@@H](NC(=O)[C@H](Cc2c[nH]c3ccccc23)NC(=O)[C@@H](N)CCCN=C(N)N)CSSC[C@@H](C(=O)N[C@@H](Cc2c[nH]c3ccccc23)C(=O)O)NC(=O)[C@H](CCCN=C(N)N)NC(=O)[C@H](CCCN=C(N)N)NC(=O)[C@H](Cc2ccc(O)cc2)NC(=O)[C@H](CCCN=C(N)N)NC1=O [RWCVRARVRGVRYRRCW],MIC,[34],1.56 µM
same,MIC,[35],12.5 µM
same,MIC,[36],1.56 µM
